# Results taken from US20020198219A1, “2-pyridinamine compositions and related methods” (priority 2000, published 2002).
# Test system: differentiated P19 neurons
# Assay: Drug screening using differentiated P19 cell assay (neuroprotection against glutamate/glycine)
# Type: cell-based, murine
# Conditions: for IC50: dose response 0.005-3 μM, 3 mM glutamate + 1 mM glycine, >1 = no maximum within highest dose (3 μM); for % neuroprotection (cell survival relative to control): screened at 1 micromolar, percentage of control cells surviving after 24 hours
# Method: Commercially available chemical libraries (BioFocus PLC, UK) were screened using the methods described herein. The stock concentration of the compounds was about 400 μM in DMSO. The concentration of compounds used in the primary screen was 1 μM. […] Columns 4-11 received compounds at the following final concentrations (μM): 3, 1.2, 0.48, 0.192, 0.077, 0.031, 0.012 and 0.005. Each row contained a different compound for confirmation. Only rows B-G received compounds, and rows A and H remained untreated. Data are expressed as % neuroprotection=((compound-glutamate average)/(U0126-glutamate average)×100).
# Only the 2-pyridinamines are the subject of this invention, although limited data for 4-pyrimidinamines are presented as well. “% Inh” indicates the percentage of control cells surviving after 24 hours, and represents the neuroprotective effect of the compounds screened at 1 micromolar concentration. IC50 relate to data from dose response experiments. […] ND refers to compounds not tested in dose-response experiments. […]
SMILES,IC50,% neuroprotection (cell survival relative to control),"IC50 (Mus musculus, Neuron)"
Oc1ccc(-c2ccc(Nc3ccc(N4CCOCC4)cc3)nc2)cc1 [Cmpd 1],1080 nM,84%,
COc1ccc(Nc2ccc(-c3ccc(O)cc3)cn2)cc1 [Cmpd 2],560 nM,94%,
COc1ccc(Nc2ccc(-c3ccc(OC(F)(F)F)cc3)cn2)cc1 [Cmpd 3],510 nM,94%,
FC(F)(F)Oc1ccc(-c2ccc(Nc3ccc4c(c3)OCCO4)nc2)cc1 [Cmpd 4],380 nM,86%,
c1cc2c(cc1Nc1ccc(-c3ccc(N4CCOCC4)cc3)cn1)OCCO2 [Cmpd 5],284 nM,80%,
"CCCCCOc1ccc(Nc2ccc(-c3ccc(N4CCOCC4)cc3)cn2)cc1 [Cmpd 6, 2-pyridinamine, 5-[4-(4-morpholinyl)phenyl]-N-[4-(pentyloxy)phenyl]-]",,83%,220 nM
"CCCCCOc1ccc(Nc2ccc(-c3ccc(N(C)C)cc3)cn2)cc1 [Cmpd 7, 2-pyridinamine, 5-[4-(dimethylamino)phenyl]-N-[4-(pentyloxy)phenyl]-]",,88%,240 nM
"COc1ccc(Nc2ccc(-c3ccc(N(C)C)cc3)cn2)cc1 [Cmpd 8, 2-pyridinamine, 5-[4-(dimethylamino)phenyl]-N-(4-methoxyphenyl)-]",,83%,200 nM
CCCCCOc1ccc(Nc2ccc(-c3ccc(O)cc3)cn2)cc1 [Cmpd 9],560 nM,84%,
"CCCCCOc1ccc(Nc2ccc(-c3ccc(CCC(=O)O)cc3)cn2)cc1 [Cmpd 10, benzenepropanoic acid, 4-[6-[[4-(pentyloxy)phenyl]amino]-3-pyridinyl]-]",,105%,230 nM
COc1ccccc1-c1ccc(Nc2ccc3c(c2)OCCO3)nc1 [Cmpd 11],870 nM,83%,
"CCOc1cccc(-c2ccc(Nc3cc(OC)c(OC)c(OC)c3)nc2)c1 [Cmpd 12, 2-pyridinamine, 5-(3-ethoxyphenyl)-N-(3,4,5-trimethoxyphenyl)-]",,87%,47 nM
"CCCCCOc1ccc(Nc2ccc(-c3ccc4c(c3)OCO4)cn2)cc1 [Cmpd 13, 2-pyridinamine, 5-(1,3-benzodioxol-5-yl)-N-[4-(pentyloxy)phenyl]-]",,98%,260 nM
"CCCCCOc1ccc(Nc2ccc(-c3ccccc3OC)cn2)cc1 [Cmpd 14, 2-pyridinamine, 5-(2-methoxyphenyl)-N-[4-(pentyloxy)phenyl]-]",,90%,220 nM
FC(F)(F)Oc1ccc(-c2ccc(Nc3ccc(N4CCOCC4)cc3)nc2)cc1 [Cmpd 17],,74%,
COc1ccc(Nc2ccc(-c3cccc(OC(F)(F)F)c3)cn2)cc1 [Cmpd 18],,74%,
"FC(F)(F)c1cc(-c2ccc(Nc3ccc(N4CCOCC4)cc3)nc2)cc(C(F)(F)F)c1 [Cmpd 21, 2-pyridinamine, 5-[3,5-bis(trifluoromethyl)phenyl]-N-[4-(4-morpholinyl)phenyl]-]",,95%,210 nM
"c1ccc2sc(-c3ccc(Nc4ccc(N5CCOCC5)cc4)nc3)cc2c1 [Cmpd 22, 2-pyridinamine, 5-benzo[b]thien-2-yl-N-[4-(4-morpholinyl)phenyl]-]",,98%,90 nM
c1ccc2oc(-c3ccc(Nc4ccc(N5CCOCC5)cc4)nc3)cc2c1 [Cmpd 23],920 nM,96%,
COc1cc(-c2ccc(Nc3ccc(N4CCOCC4)cc3)nc2)cc(OC)c1OC [Cmpd 24],1760 nM,94%,
"c1ccc2cc(-c3ccc(Nc4ccc(N5CCOCC5)cc4)nc3)ccc2c1 [Cmpd 25, 2-pyridinamine, N-[4-(4-morpholinyl)phenyl]-5-(2-naphthyl)-]",,100%,84 nM
Clc1cccc(-c2ccc(Nc3ccc(N4CCOCC4)cc3)nc2)c1Cl [Cmpd 26],> 1000 nM,107%,

SMILES,IC50,% neuroprotection (cell survival relative to control),"IC50 (Mus musculus, Neuron)"
c1ccc(Oc2ccccc2-c2ccc(Nc3ccc(N4CCOCC4)cc3)nc2)cc1 [Cmpd 28],> 1000 nM,83%,
Clc1ccc(-c2ccc(Nc3ccc(N4CCOCC4)cc3)nc2)cc1 [Cmpd 29],> 1000 nM,82%,
c1cc(N2CCOCC2)ccc1Nc1ccc(-c2ccc3c(c2)OCO3)cn1 [Cmpd 30],> 1000 nM,84%,
Fc1ccc(-c2ccc(Nc3ccc(N4CCOCC4)cc3)nc2)cc1Cl [Cmpd 31],> 1000 nM,83%,
COc1ccccc1-c1ccc(Nc2ccc(N3CCOCC3)cc2)nc1 [Cmpd 32],> 1000 nM,100%,
FC(F)(F)Oc1cccc(-c2ccc(Nc3ccc(N4CCOCC4)cc3)nc2)c1 [Cmpd 33],> 1000 nM,89%,
COc1ccc(Nc2ccc(-c3ccccc3OC)cn2)cc1 [Cmpd 35],> 1000 nM,82%,
CCCCCOc1ccc(Nc2ccc(-c3cccc(N)c3)cn2)cc1 [Cmpd 36],> 1000 nM,98%,
CCCCCOc1ccc(Nc2ccc(-c3cccnc3)cn2)cc1 [Cmpd 37],,84%,
CN(C)c1cccc(Nc2ccc(-c3ccc(N4CCN(C(=O)OC(C)(C)C)CC4)cc3)cn2)c1 [Cmpd 38],,89%,
COc1cc(Nc2ccc(-c3ccc(N4CCN(C(=O)OC(C)(C)C)CC4)cc3)cn2)cc(OC)c1OC [Cmpd 40],,77%,
CC(C)(C)OC(=O)N1CCN(c2ccc(-c3ccc(Nc4ccc5c(c4)OCCO5)nc3)cc2)CC1 [Cmpd 69],,99%,
Oc1ccc(-c2ccc(Nc3ccc4c(c3)OCCO4)nc2)cc1 [Cmpd 70],,93%,
COc1ccccc1-c1ccc(Nc2cc(OC)c(OC)c(OC)c2)nc1 [Cmpd 71],,77%,
CCOc1cccc(-c2ccc(Nc3ccc4c(c3)OCCO4)nc2)c1 [Cmpd 73],,76%,
COc1cc(Nc2ccc(-c3cccc(N(C)C)c3)cn2)cc(OC)c1OC [Cmpd 74],,95%,
CCCCCOc1ccc(Nc2ccc(-c3cccc(N(C)C)c3)cn2)cc1 [Cmpd 75],,88%,
CN(C)c1cccc(-c2ccc(Nc3ccc4c(c3)OCCO4)nc2)c1 [Cmpd 76],,95%,
CCn1c2ccccc2c2cc(Nc3ccc(-c4ccc(N5CCOCC5)cc4)cn3)ccc21 [Cmpd 77],,82%,
c1ccc(-c2ccc(-c3ccc(Nc4ccc(N5CCOCC5)cc4)nc3)cc2)cc1 [Cmpd 78],470 nM,109%,
COc1ccc(-c2ccc(Nc3ccc(N4CCOCC4)cc3)nc2)cc1OC [Cmpd 79],460 nM,110%,
